The text below walks through data of patent publication US20060135415A1, “Immunomodulation and effect on cell processes relating to serotonin family receptors and the blood-brain barrier” (priority 2002, published 2006).

Each structure is given as a SMILES string. Entries after “also recorded” stand apart in the source; their conditions may differ.

The test system of experiment [1] is allogeneic stimulation of human lymphocytes. Description: Human mixed lymphocyte reaction (allogeneic stimulation), 3H-thymidine. The experiment is classed as cell-based. The conditions noted are these: allogeneic stimulation, harvest 120 hours, drug titration (FIGS. 7B, 8B, 9B). The source says: Blood from two healthy, non-related, donors was taken as described above. Peripheral blood mononuclear cells were isolated as described previously elsewhere. The adherent cells were separated from the suspension cells as described previously for both donors. Suspension cells from both donors (donors A and B) were used as responders. The remaining adherent cells from each of the donors were used as stimulators against a different donor (suspension A against adherent B and adherent A against suspension B). The stimulator cells were irradiated at 35 Gy. Drugs were pre-plated onto 96 well, U-bottom plates in triplicate. 200,000 “stimulator” cells in RPMI supplemented with 10% human serum were then plated in each well. 200,000 “responder” cells in the same medium were then plated over stimulators to a final volume of 200 μl/well. Background controls received either no stimulator cells, or no responder cells. The plates were incubated at 37° C. and 5% CO2. 1 μCi of tritiated thymidine was added to each well after 4.5 days, and the plates were harvested 12 hours later.

Experiment [2] concerns ConA stimulated human lymphocytes. Nature of the experiment: Human mitogenic (ConA) stimulation, 3H-thymidine incorporation. The experiment is classed as cell-based. The following applies: for activation / proliferative response: 5 μg/ml ConA, harvest 72 hours, drug titration (FIGS. 7A, 8A, 9A, 17, 33). The protocol: Blood from healthy volunteers was drawn using venipuncture, using Vacutainer collection sets and heparinized collection vials. The blood was diluted 1:1 using HBSS to a total volume of 30 ml in 50 ml conical tubes (Fisher Scientific, Co., Pittsburgh, Pa.). […] Cells from the buffy coats were collected and the residual Histopaque was washed away using repeated centrifugations in HBSS. After washes, cells were resuspended at 5 million cells per ml in RPMI, supplemented with 2% FBS. To remove adherent cells, the suspension was plated onto a 6 well flat-bottom plate (Corning Costar), 3 ml/well, and incubated for 2 hours at 37° C., 5% CO2. Non-adherent cells were harvested after this incubation, were counted and resuspended in RPMI supplemented with 10% human serum (Sigma).
All drugs were pre-plated before the cell suspension was added onto each well of a 96-well round-bottom plate. All experimental conditions were assayed in at least triplicate. Cells suspended in RPMI supplemented with 10% human serum were plated at 100,000 cells per well to a final volume of 200 μl. […] Control samples received no ConA stimulation. The plates were incubated at 37° C. and 5% CO2.

Experiment [3] relates to RPMI 8226 multiple myeloma cells. Description: RPMI 8226 cell viability and proliferation (trypan blue, MTT, 3H-thymidine). The experiment is classed as cell-based, human. The following applies: 3H-thymidine uptake, drug titration (FIGS. 19-25, 31, 32). As to the method:
The human plasmacytoma (multiple myeloma) cell line, RPMI 8226 (American Type Culture Collection, Manassas, Va.), was cultured in RPMI 1640 supplemented with 10 mM HEPES, 1 mM sodium pyruvate, 4.5 g/L glucose, 1.5 g/L bicarbonate and 20% FBS (non-heat inactivated).
Cell proliferation was assayed by three methods—Trypan Blue Exclusion was used to quantify the number of viable cells in culture; 3-(4,5-dimethylthiazol-2-yl)-2,5-diphenyl tetrazolium bromide (MTT) reduction was used to assay mitochondrial activity (and thus cell viability); and ^3H-Thymidine uptake was employed to assay for active DNA synthesis.
Three separate indicators of cell proliferation were employed to study the effects of 5-HT receptor modulating agents on the human multiple myeloma cell line, RPMI 8226. Cells were plated at 4 separate densities and were treated with LY53587 (an antagonist of the 5-HT2A/2B/2C receptors) at a range of concentrations. The exclusion of trypan blue dye was used as an indicator of cell viability. Cell numbers were then plotted against the concentration of drug added.
MTT reduction was also used as an indicator of cell viability (more specifically, mitochondrial activity). Absorbance values at OD570 were then plotted against drug concentration. Finally, DNA synthesis was assayed, through the measurement of ^3H-thymidine uptake, and counts per minute (CPMs) were plotted against drug concentration.
Culturing and administration of drugs and ^3H-thymidine were performed as described elsewhere herein.

In experiment [4] the test system is RPMI-8226 cells. Description: Cytospin histochemistry (H&E, bis-benzamide) for chromatin. The experiment is classed as cell-based, human. The following applies: 9 hour treatments; 50 μM SB compounds, 2 μM camptothecin (FIGS. 28, 29). As to the method:
2.0×10^5 RPMI-8226 cells were cultured, in 6-well culture plates, in the presence of the indicated drug concentrations, in a total of 5 mL RPMI-1640 supplemented with 10% FBS. Each well was harvested in its entirety and divided into two identical samples for cytospins.
1.0×10^5 RPMI-8226 cells from each treatment group were loaded into Cyto-funnels and centrifuged at 500 rpm for 4 minutes with medium acceleration. Slides were then fixed through graded methanol in PBS (100%, 5 minutes; 80%, 5 minutes; 50%, 5 minutes), washed for 5 minutes in PBS and stored in PBS at 4° C. until stained.
Cytospun slides were stained with Hematoxylin and Eosin, followed by the nuclear stain, bis-benzamide, rinsed and mounted according to standard staining protocols. Slides were visualized under both brightfield and fluorescent light to generate matched images of the same slide field (see, e.g., FIGS. 28 and 29).

The subject of experiment [5] is allogeneic CTL response against P815 cells. Nature of the experiment: Murine allograft model, CTL killing of P815 target cells by splenocytes. The conditions noted are these: Cyclosporin A 100 μg ip daily from day −2; for allograft (CTL) response: 5HT antagonists 200 μg/injection tail vein days 6 and 8, sacrifice day 14 (FIGS. 13, 14); for allogeneic killing response: serotonin-specific compounds 300 μg/injection tail vein days 5 and 7, sacrifice day 14 (FIGS. 18A, 18B). The experiment is classed as in vivo, C57BL/6J mice. As to the method:
The in vivo validation screen used was an art-recognized murine allogeneic rejection model as described in Zhan et al., 2000. For this assay, a complete MHC miss-match system was employed wherein 5×10^6 P815 cells ([H-2^d] DBA/2 mastocytoma) were injected into the peritoneal cavity of C57BL/6J (H-2^b) mice on day 0 of the experiment. These mice typically generate a strong cytotoxic T lymphocyte (CTL) reaction in response to P815 cells. Following the initial P815 cell inoculation, the mice were allowed to develop a CTL response (this usually takes about 10-14 days). […] Mice were then sacrificed on day 14 of the experiment as indicated in the figures; and the allogeneic CTL response was assayed as described previously (Tretiakova et al., 2000, Nature Biotechnology 18:984-988). The primary spleen cells from the treated and untreated animals were used in the direct CTL readout. Freshly obtained primary spleen cells were incubated with the [^3H] labeled target cells (P815 cells) at 100:1, 50:1, 25:1, and 12.5:1 ratios for 3.5 hours at 37° C. and harvested using a PHD harvester. The percentage of specific killing was determined using the formula % kill=(S−E)/S, where S is the amount of the DNA retained by the target cells in the absence of the effector cells and E is the amount of retained DNA in the presence of the effector cells (expressed in counts per minute; cpm).
This is an art-recognized model of allograft […] rejection based on that described by […]. (2000). In this model, there is a complete MHC mismatch between the P815 cells (H-2^d) and the C57BL6 mouse (H-2^b), thus ensuring an aggressive immune response. The data disclosed in FIG. 13, depicts results of experiments that included 6 treatment groups, each group consisting of three mice. Each mouse received 5×10^6 P815 cells injected into the peritoneal cavity on day 0 of the study. The first group was an untreated control group, which was used to establish the baseline response of the mice against the allogeneic stimulus. These mice, without any further treatments, were sacrificed, as were the other treatment groups, on day 14 of the study and their splenocytes assayed for target-specific killing of the P815 cells.
The average kill observed for the untreated group was about 45% at an effector to target ratio of 100:1. The second group was treated with risperidone, a 5HT-2 antagonist, administered via a tail vein bolus injection (200 μg/injection) on days 6 and 8 of the study. The timing of the drug administration was selected to ensure that the T cells were fully activated prior to the drug treatment. The third group was treated with propanolol, a 5HT-1 antagonist. All of the 5HT receptor antagonist-treated groups were treated as described for the risperidone-treated group. The fourth group was treated chronically with CyclosporinA. The Cyclosporin A was administered ip at a dosage of 100 μg/injection starting two days prior to the onset of the study, i.e., at day −2, and the injections were continued on a daily basis for the duration of the study.
Finally, studies conducted in vivo using the CD8-dependent allograft rejection model, in which P815 cells (a rapidly growing cell line taken from a mastocytoma in a DBA mouse), were expanded and used to create a robust rejection response in a C57BL6 mouse. In this study the mice received 5×10^6 P815 cells injected into their peritoneal cavity on day 0 of the study. The first group was an untreated control group (naïve animals), used to acquire the baseline response of the mice against the allogeneic stimulus. The positive controls were treated with the allogeneic cells without any further treatments. These animals were used to assess the induced allogeneic response against the P815 cells. […]

As for `OC(CN1CCN(c2cccc(Cl)c2)CC1)C(c1ccccc1)c1ccccc1` (stereo not drawn) [BRL 15572], the “activation / proliferative response” value in experiment [1] and in experiment [2] was “had no effect upon the proliferative response” throughout.
Take `CSc1ccc2c(c1)C(N1CCN(C)CC1)Cc1ccccc1S2` (stereo not drawn) [methiothepin]: the “activation / proliferative response” value in experiment [1] and in experiment [2] was “inhibit the activation response at pharmacologically relevant concentrations” throughout. In experiment [3], the “growth / proliferation of RPMI 8226 cells” value is listed as “strong inhibition of growth”.
Consider `NNCCc1ccccc1` [phenelzine], for which, in experiment [2] (0.1 and 1 μg/ml ConA (FIGS. 5A, 5B)), the “drug concentration giving significant inhibition” value was in the range of 10 to 100 µM. The “drug concentration at which full inhibition occurs” value in experiment [2] (higher ConA stimulation (10 μg/ml)) was in the range of 100 to 400 µM. Moreover, the proliferative response result in experiment [2] (highest ConA dose 10 μg/ml, harvest 72 hours (FIG. 5C)) is listed as “no inhibition was observed”. In addition, in experiment [2] (reagents at 400 μM, time course (FIG. 4)), the “stimulation of ConA-activated human PBLs” value is reported as “completely shut down the stimulation”.
Regarding `CC[C@@]1(O)C(=O)OCc2c1cc1n(c2=O)Cc2cc3ccccc3nc2-1` [camptothecin], the “chromatin condensation / fragmentation (apoptosis)” value in experiment [4] was “Extensive chromatin condensation and nuclear fragmentation”.
Regarding `CC[C@@H](CO)NC(=O)[C@@H]1C=C2c3cccc4c3c(cn4C)C[C@H]2N(C)C1` [methysergide], in experiment [5], the “allograft (CTL) response” value is “inhibited the allograft response to varying degrees” and the allogeneic killing response entry was “complete inhibition of the induced killing response; also recorded: abrogated the allogeneic killing response; also recorded: inhibition profile was striking”.
For the compound `CC(O)C(C)OC(=O)[C@@H]1C[C@@H]2c3cccc4c3c(cn4C(C)C)C[C@H]2N(C)C1` (stereo partly drawn) [LY 53857], the “activation / proliferative response” value in experiment [1] and in experiment [2] was “inhibit the activation response at pharmacologically relevant concentrations” each time.
With `N[C@@H](Cc1ccc(Cl)cc1)C(=O)O` (racemic) [PCPA, para-chlorophenylalanine], the mitogenic response entry in experiment [2] (human PBLs, 1 μg/ml ConA, PCPA titration (FIG. 3)) is “inhibits the mitogenic response in a dose-dependent manner”.
In the case of `COc1ccccc1N1CCN(CCN(C(=O)C2CCCCC2)c2ccccn2)CC1` [WAY 100635], the “in vitro activation / proliferation of (helper) T cells” value in experiment [2] is on record as “significantly inhibits the activation response”.
`Cn1ccc2cc3c(cc21)CCN3C(=O)Nc1cccnc1` [SB 206553]: the “activation / proliferative response” value in experiment [1] and in experiment [2] was “inhibit the activation response at pharmacologically relevant concentrations” each time. Further, the “in vitro activation / proliferation of (helper) T cells” value in experiment [2] was “immediate cessation of proliferation”. Moreover, the “allograft (CTL) response” value in experiment [5] is reported as “Two of the treated mice had the allogeneic response completely suppressed; also recorded: Two of the three treated mice inhibited the allograft response to a degree equivalent to that observed in the Cyclosporin A-treated animals”; in experiment [5] (listed as SB206553), “inhibited the allograft response to varying degrees”. Moreover, in experiment [5], the allogeneic killing response result was “striking”.
For `N[C@@H](Cc1c[nH]c2ccc(O)cc12)C(=O)O` [5-hydroxytryptophan], the proliferation response result in experiment [2] (25 μM, in the absence of PCPA (FIG. 3)) is on record as “significantly enhanced the proliferation response”. Further, the “reversal of PCPA inhibition of mitogenic response” value in experiment [2] (added to PCPA-inhibited cells (FIG. 3)) is on record as “this inhibition can be reversed”.
